Assays:
[1] = molecular target: rat TAAR1 (Rattus norvegicus (Rat), UniProt Q923Y9); test: Radioligand binding assay on rat TAAR1; conditions: rat TAAR1, membranes of stably transfected HEK-293 cells; second value of mouse/rat pair
Procedure: (§1) Construction of TAAR Expression Plasmids and Stably Transfected Cell Lines
(§2) For the construction of expression plasmids the coding sequences of human, rat and mouse TAAR 1 were amplified from genomic DNA essentially as described by Lindemann et al.. The Expand High Fidelity PCR System (Roche Diagnostics) was used with 1.5 mM Mg^2+ and purified PCR products were cloned into pCR2.1-TOPO cloning vector (Invitrogen) following the instructions of the manufacturer. PCR products were subcloned into the pIRESneo2 vector (BD Clontech, Palo Alto, Calif.), and expression vectors were sequence verified before introduction in cell lines.
(§3) HEK293 cells (ATCC # CRL-1573) were cultured essentially as described by Lindemann et al. (2005). For the generation of stably transfected cell lines HEK293 cells were transfected with the pIRESneo2 expression plasmids containing the TAAR coding sequences (described above) with Lipofectamine 2000 (Invitrogen) according to the instructions of the manufacturer, and 24 hrs post transfection the culture medium was supplemented with 1 mg/ml G418 (Sigma, Buchs, Switzerland). After a culture period of about 10 d clones were isolated, expanded and tested for responsiveness to trace amines (all compounds purchased from Sigma) with the cAMP Biotrak Enzyme immunoassay (EIA) System (Amersham) following the non-acetylation EIA procedure provided by the manufacturer.
Radioligand Binding Assay on Rat TAAR1
(§4) Membrane Preparation and Radioligand Binding.
(§5) HEK-293 cells stably expressing rat TAAR1 were maintained at 37° C. and 5% CO2 in DMEM high glucose medium, containing fetal calf serum (10%, heat inactivated for 30 min at 56° C.), penicillin/streptomycin (1%), and 375 μg/ml geneticin (Gibco). Cells were released from culture flasks using trypsin/EDTA, harvested, washed twice with ice-cold PBS (without Ca^2+ and Mg^2+), pelleted at 1′000 rpm for 5 min at 4° C., frozen and stored at −80° C. Frozen pellets were suspended in 20 ml HEPES-NaOH (20 mM, pH 7.4) containing 10 mM EDTA and homogenized with a Polytron (PT 6000, Kinematica) at 14,000 rpm for 20 s. The homogenate was centrifuged at 48,000×g for 30 min at 4° C. Subsequently, the supernatant was removed and discarded, and the pellet resuspended in 20 ml HEPES-NaOH (20 mM, pH 7.4) containing 0.1 mM EDTA using the Polytron (20 s at 14,000 rpm). This procedure was repeated and the final pellet resuspended in HEPES-NaOH containing 0.1 mM EDTA and homogenized using the Polytron. Typically, aliquots of 2 ml membrane portions were stored at −80° C. With each new membrane batch the dissociation constant (Kd) was determined via a saturation curve. […] Nonspecific binding was defined as the amount of [H]—(S)-4-[(ethyl-phenyl-amino)-methyl]-4,5-dihydro-oxazol-2-ylamine bound in the presence of 10 μM unlabeled ligand. All compounds were tested at a broad range of concentrations (10 pM to 10 μM) in duplicates. […] The 96 deep well plates were incubated for 1 hr at 4° C. Incubations were terminated by rapid filtration through Unifilter-96 plates (Packard Instrument Company) and glass filters GF/C (Perkin Elmer) presoaked for 1 hr in polyethylenimine (0.3%) and washed 3 times with 1 ml of cold binding buffer. After addition of 45 μl of Microscint 40 (PerkinElmer) the Unifilter-96 plate was sealed and after 1 hr the radioactivity counted using a TopCount Microplate Scintillation Counter (Packard Instrument Company).

[2] = molecular target: mouse TAAR1 (Mus musculus (Mouse), UniProt Q923Y8); test: Radioligand binding assay on mouse TAAR1; conditions: mouse TAAR1, membranes of stably transfected HEK-293 cells; first value of mouse/rat pair
mouse TAAR1, sequence (Q923Y8 whole entry): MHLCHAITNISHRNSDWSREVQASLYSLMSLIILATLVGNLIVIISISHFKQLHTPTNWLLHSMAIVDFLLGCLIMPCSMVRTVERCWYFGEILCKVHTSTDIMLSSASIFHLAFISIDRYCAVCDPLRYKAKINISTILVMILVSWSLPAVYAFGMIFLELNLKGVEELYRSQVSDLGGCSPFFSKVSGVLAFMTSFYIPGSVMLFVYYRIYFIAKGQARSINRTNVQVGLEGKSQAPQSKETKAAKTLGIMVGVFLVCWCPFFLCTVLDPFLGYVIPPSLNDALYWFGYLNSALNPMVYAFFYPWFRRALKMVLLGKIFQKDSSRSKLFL
Procedure: as §1, §2, §3
Radioligand Binding Assay on Mouse TAAR1
as §4
as §5, with “expressing mouse” for “expressing rat”, “of ^3[H]—(S)-4-[(ethyl-phenyl-amino)-methyl]-4,5-dihydro-oxazol-2-ylamine” for “of [H]—(S)-4-[(ethyl-phenyl-amino)-methyl]-4,5-dihydro-oxazol-2-ylamine”

rat TAAR1, sequence (Q923Y9 whole entry): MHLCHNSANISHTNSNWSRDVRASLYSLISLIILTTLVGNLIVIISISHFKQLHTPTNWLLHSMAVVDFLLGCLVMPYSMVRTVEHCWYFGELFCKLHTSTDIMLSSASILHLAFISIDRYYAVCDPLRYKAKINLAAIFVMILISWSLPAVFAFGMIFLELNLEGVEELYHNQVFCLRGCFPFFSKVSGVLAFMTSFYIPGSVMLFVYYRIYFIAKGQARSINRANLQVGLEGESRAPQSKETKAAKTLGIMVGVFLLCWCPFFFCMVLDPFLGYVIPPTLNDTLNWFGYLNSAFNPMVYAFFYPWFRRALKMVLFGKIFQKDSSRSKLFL

CCc1ccc(NC(=O)c2ccc3c(c2)CCC(N)C3)cc1 (stereo not shown) [Example 56, 6-Amino-N-(4-ethylphenyl)-5,6,7,8-tetrahydronaphthalene-2-carboxamide] showed a Ki [1] of 0.0456 µM and a Ki [2] of 0.0155 µM.
In the case of N[C@H]1CCc2cc(NC(=O)Nc3ccc(C(F)(F)F)cc3)ccc2C1 [Example 24, (S)-1-(6-Amino-5,6,7,8-tetrahydronaphthalen-2-yl)-3-(4-(trifluoromethyl)phenyl)urea], the Ki [1] is reported as 0.0003 µM and the Ki [2] is reported as 0.0011 µM.
N[C@@H]1CCc2cc(NC(=O)c3ccc(Cl)cc3)ccc2C1 [Example 14, (R)—N-(6-Amino-5,6,7,8-tetrahydronaphthalen-2-yl)-4-chlorobenzamide] showed a Ki [1] of 0.0069 µM and a Ki [2] of 0.0092 µM.
N[C@H]1CCc2cc(NC(=O)c3ccnc(C(F)(F)F)c3)ccc2C1 [Example 45, (S)—N-(6-Amino-5,6,7,8-tetrahydronaphthalen-2-yl)-2-(trifluoromethyl)isonicotinamide] was tested, and the Ki [1] was 0.0063 µM and the Ki [2] was 0.0117 µM.
NC1CCc2cc(NC(=O)c3n[nH]c(C4CC4)c3Br)ccc2C1 (stereo not shown) [Example 2, N-(6-Amino-5,6,7,8-tetrahydronaphthalen-2-yl)-4-bromo-5-cyclopropyl-1H-pyrazole-3-carboxamide] was tested, and the Ki [1] was 0.0042 µM and the Ki [2] was 0.0077 µM.
For N#Cc1ccc(NC(=O)c2ccc3c(c2)CCC(N)C3)cc1 (stereo not shown) [Example 70], the Ki [1] was 0.0032 µM and the Ki [2] was 0.0044 µM.
Molecule N[C@H]1COc2cc(NC(=O)c3nccc(Cl)n3)ccc2C1 [Example 82, (R)—N-(3-Aminochroman-7-yl)-4-chloropyrimidine-2-carboxamide] has a Ki [1] of 0.511 µM and a Ki [2] of 0.173 µM.
CCn1nc(C(=O)Nc2ccc3c(c2)CC[C@H](N)C3)c(Br)c1OCC(F)F [Example 52, (S)—N-(6-Amino-5,6,7,8-tetrahydronaphthalen-2-yl)-4-bromo-5-(2,2-difluoroethoxy)-1-ethyl-1H-pyrazole-3-carboxamide] was tested, and the Ki [1] was 0.0016 µM and the Ki [2] was 0.0128 µM.
N[C@H]1CCc2cc(NC(=O)c3ccc(C(F)(F)F)nc3)ccc2C1 [Example 20, (S)—N-(6-Amino-5,6,7,8-tetrahydronaphthalen-2-yl)-6-(trifluoromethyl)nicotinamide] showed a Ki [1] of 0.0237 µM and a Ki [2] of 0.0265 µM.
Work on NC1CCc2cc(C(=O)Nc3ccc(C4CC4)cc3)ccc2C1 (stereo not shown) [Example 60, 6-Amino-N-(4-cyclopropylphenyl)-5,6,7,8-tetrahydronaphthalene-2-carboxamide] yielded a Ki [1] of 0.0213 µM and a Ki [2] of 0.0096 µM.
N[C@H]1CCc2cc(NC(=O)NCc3cccc(OC(F)(F)F)c3)ccc2C1 [Example 63, (S)-1-(6-Amino-5,6,7,8-tetrahydronaphthalen-2-yl)-3-(3-(trifluoromethoxy)benzyl)urea] showed a Ki [1] of 0.0039 µM and a Ki [2] of 0.002 µM.
Cc1onc(C(=O)Nc2ccc3c(c2)CC[C@H](N)C3)c1Cl [Example 26, (S)—N-(6-Amino-5,6,7,8-tetrahydronaphthalen-2-yl)-4-chloro-5-methylisoxazole-3-carboxamide] was tested, and the Ki [1] was 0.0199 µM and the Ki [2] was 0.0049 µM.
For Cc1nc(-c2ccc(C(=O)Nc3ccc4c(c3)OC[C@H](N)C4)cc2)cs1 [Example 83, (R)—N-(3-Aminochroman-7-yl)-4-(2-methylthiazol-4-yl)benzamide], the Ki [1] was 0.0034 µM and the Ki [2] was 0.0018 µM.
CCCc1cc(C(=O)Nc2ccc3c(c2)CC[C@H](N)C3)nn1CC(F)F [Example 5, (S)—N-(6-Amino-5,6,7,8-tetrahydronaphthalen-2-yl)-1-(2,2-difluoroethyl)-5-propyl-1H-pyrazole-3-carboxamide] was tested, and the Ki [1] was 0.0021 µM and the Ki [2] was 0.0067 µM.
In the case of N[C@@H]1CCc2cc(C(=O)Nc3cccc(OC(F)(F)F)c3)ccc2C1 [Example 78, (R)-6-Amino-N-(3-(trifluoromethoxy)phenyl)-5,6,7,8-tetrahydronaphthalene-2-carboxamide], the Ki [1] is reported as 0.0044 µM and the Ki [2] is reported as 0.0073 µM.
Molecule N[C@H]1CCc2cc(Nc3cccc(OC(F)(F)F)c3)ccc2C1 [Example 61, (S)—N6-(3-(Trifluoromethoxy)phenyl)-1,2,3,4-tetrahydronaphthalene-2,6-diamine] has a Ki [1] of 0.0049 µM and a Ki [2] of 0.0071 µM.
In the case of N[C@H]1CCc2cc(Nc3ncc(C(F)(F)F)cn3)ccc2C1 [Example 23, (S)—N6-(5-(Trifluoromethyl)pyrimidin-2-yl)-1,2,3,4-tetrahydronaphthalene-2,6-diamine], the Ki [1] is reported as 0.0068 µM and the Ki [2] is reported as 0.0213 µM.
For N[C@H]1CCc2cc(NC(=O)c3ccc(OCC(F)(F)F)nc3)ccc2C1 [Example 22, (S)—N-(6-Amino-5,6,7,8-tetrahydronaphthalen-2-yl)-6-(2,2,2-trifluoroethoxy)nicotinamide], the Ki [1] was 0.0016 µM and the Ki [2] was 0.0033 µM.
Work on N[C@H]1CCc2cc(NC(=O)c3cc(Cl)nc(Cl)c3)ccc2C1 [Example 46, (S)—N-(6-Amino-5,6,7,8-tetrahydronaphthalen-2-yl)-2,6-dichloroisonicotinamide] yielded a Ki [1] of 0.0022 µM and a Ki [2] of 0.0042 µM.
For CCn1nc(C(=O)Nc2ccc3c(c2)OC[C@H](N)C3)c(Br)c1OCC(F)F [Example 92, (R)—N-(3-Aminochroman-7-yl)-4-bromo-5-(2,2-difluoroethoxy)-1-ethyl-1H-pyrazole-3-carboxamide], the Ki [1] was 0.0023 µM and the Ki [2] was 0.0151 µM.
For N[C@H]1CCc2cc(NC(=O)c3cnn(-c4ccc(OC(F)(F)F)cc4)c3)ccc2C1 [Example 29, (S)—N-(6-Amino-5,6,7,8-tetrahydronaphthalen-2-yl)-1-(4-(trifluoromethoxy)phenyl)-1H-pyrazole-4-carboxamide], the Ki [1] was 0.0005 µM and the Ki [2] was 0.0012 µM.
For COc1cccc(Nc2ccc3c(c2)CC[C@H](N)C3)c1 [Example 94, (S)—N6-(3-Methoxyphenyl)-1,2,3,4-tetrahydronaphthalene-2,6-diamine], the Ki [1] was 0.0462 µM and the Ki [2] was 0.0541 µM.
With NC1CCc2cc(C(=O)Nc3ccc(Cl)cc3)ccc2C1 (stereo not shown) [Example 57, 6-Amino-N-(4-chlorophenyl)-5,6,7,8-tetrahydronaphthalene-2-carboxamide] the Ki [1] was 0.0142 µM and the Ki [2] was 0.0116 µM.
In the case of N[C@H]1CCc2cc(Nc3ccc(C4CC4)cc3)ccc2C1 [Example 73, (S)—N6-(4-Cyclopropylphenyl)-1,2,3,4-tetrahydronaphthalene-2,6-diamine], the Ki [1] is reported as 0.0081 µM and the Ki [2] is reported as 0.01 µM.
Molecule N[C@H]1CCc2cc(NCc3ccc(Cl)cc3)ccc2C1 [Example 75, (S)—N6-(4-Chlorobenzyl)-1,2,3,4-tetrahydronaphthalene-2,6-diamine] has a Ki [2] of 0.0048 µM.
